Data on 3 compounds can be found in patent US12037317B2, “Synthesis of 3-hydroxybutyryl 3-hydroxybutyrate and related compounds” (Buck Institute for Research on Aging, priority 2018, dated 2024).

By IC50 is commonly meant the concentration that inhibits the measured activity by half.

Entries after “also recorded” stand apart in the source; their conditions may differ.

The conditions of data set [1]: disclosed in co-owned U.S. Provisional Application No. 62/535,754; cited from earlier work.
For data set [2], the system named is histone deacetylases (HDAC). The experiment in a line: in vitro HDAC assay (Fluor de Lys Green kit, Enzo). Format: biochemical. The conditions noted are these: comparison with a different, previously published assay. The procedure: (§1) The activity of S-BHB and R-BHB enantiomers in inhibiting histone deacetylases was tested. This is an in vitro HDAC assay performed using the sodium salt of S-BHB and R-BHB with a commercial assay kit, Fluor de Lys Green from Enzo.

Data set [3] concerns T1, histone deacetylases (HDAC).
T1 construct: other: sodium salt; Fluor de Lys Green kit; same assay as S-BHB
The experiment in a line: in vitro HDAC assay (Fluor de Lys Green kit, Enzo). Particulars: sodium salt. Type of data set: biochemical. The procedure:
as §1

For data set [4] the following is noted: ingested as a drink, compared to equivalent calories as carbohydrate; cited from earlier work.
For data set [5] the following is noted: humans on a normal diet, ingested orally; cited from earlier work.

For `C[C@H](O)CC(=O)O` [S-BHB, (S)-β-hydroxybutyric acid], the “serum half-life compared to the R-enantiomer” value in data set [1] is recorded as “substantially improved”. Besides, the “potency for HDAC inhibition relative to published potency of R-BHB in a different assay (Shimazu et al., Science 2013)” value in data set [2] is at most 2 fold. In data set [3], the “inhibition of deacetylase activity (in words)” value is “even more effective than R-BHB; also recorded: dose-dependent inhibition”. In data set [3] (Fluor de Lys Green kit, read-out: HDAC inhibition IC50), the IC50 came out at 7.3 mM.

Take `C[C@@H](O)CC(=O)O` [R-BHB, R-β-Hydroxybutyrate, reference compound]: in data set [3], the “inhibition of deacetylase activity (in words)” value is “partial inhibition”. Further, the “maximum inhibition of HDAC activity” value in data set [3] (same assay as S-BHB) is listed as “about 50%”.

With `C[C@@H](O)CCOC(=O)C[C@@H](C)O` [R-3-hydroxybutyryl R-3-hydroxybutyrate, (R) 3-hydroxybutyryl (R) 3-hydroxy butyrate], the “performance in cycling time-trial test” value in data set [4] is on record as “improved performance”. For the same compound, the level of ketosis in data set [5] is around 6000 µM.
